Converted amounts (≈) assume the structure as drawn.

One data set deals with Leishmania donovani. Kind of data set: Antileishmanial activity against Leishmania donovani MHOM/ET/L82/LV9 promastigotes after 3 days by MTT assay. Format: functional, organism-based. To be noted: MHOM/ET/L82/LV9, 72 h. A general note: Formazan colour is commonly taken as a measure of viable cells.
In the next data set the test system is Vero. Kind of data set: Cytotoxicity against african green monkey Vero cells. Format: ADME, cell-based. To be noted: Chlorocebus sabaeus.
The subject of data set [1] is Trypanosoma brucei brucei. Kind of data set: Antitrypanosomal activity against Trypanosoma brucei brucei. Format: functional, organism-based.
The next data set deals with Plasmodium falciparum. In words: microbe, parasite or virus in culture. To be noted: FcB1/Columbia. Format: functional, organism-based.
Data set [2] can be described thus: Selectivity index, ratio of IC50 for african green monkey Vero cells to IC50 for chloroquine-resistant Plasmodium falciparum FcB1/Colombia. Format: toxicity, cell-based. To be noted: read-out: Ratio IC50.

Description for Plasmodium falciparum: Antiplasmodial activity against chloroquine-resistant Plasmodium falciparum FcB1/Colombia infected in human A+ve erythrocytes assessed as inhibition of [G-3H]hypoxanthine uptake preincubated for 24 hrs prior to [G-3H]hypoxanthine addition measured after 18 hrs by liquid scintillation counting

Usually EC50 stands for the concentration giving half of the maximal effect. As a reminder, the IC50 is the concentration that gives 50% inhibition. For the compound `CC1(C)C=Cc2c(ccc(CCC(=O)O)c2O[C@@H]2O[C@H](CO[C@@H]3O[C@H](CO)[C@@H](O)[C@H](O)[C@H]3O)[C@@H](O)[C@H](O)[C@H]2O)O1` [OMUBIOSIDE], the EC50 (with Leishmania donovani; in data set [1]) was greater than 125 µg/mL in each case. Besides, the IC50 with Vero is greater than 50 µg/mL; in the data set on Plasmodium falciparum it was greater than 100 µg/mL.
Regarding `COc1cc2ccc(=O)oc2cc1O[C@@H]1O[C@H](CO[C@@H]2O[C@@H](C)[C@H](O)[C@@H](O)[C@H]2O)[C@@H](O)[C@H](O)[C@H]1O` [HAPLOPEROSIDE], the EC50 (with Leishmania donovani; in data set [1]) was greater than 125 µg/mL each time. The IC50 is greater than 50 µg/mL in the data set on Vero and greater than 100 µg/mL with Plasmodium falciparum.
Consider `CC(C)=CCc1cc2ccc(=O)oc2cc1O` [DEMETHYLSUBEROSIN], for which the 50% effective concentration (EC50) in the data set on Leishmania donovani was 120 µg/mL (≈ 521 µM); in data set [1], greater than 125 µg/mL. Also, the IC50 is greater than 50 µg/mL in the data set on Vero and 16.7 µg/mL (≈ 72.5 µM) with Plasmodium falciparum.
Take `CC(=O)O[C@@H]1C[C@H]2C(C)(C)OC(=O)C=C[C@]2(C)[C@H]2CC[C@@]3(C)[C@H](c4ccoc4)OC(=O)[C@H]4O[C@]43[C@@]21C`: the EC50 in the data set with Leishmania donovani was 45 µg/mL (≈ 90.3 µM); in data set [1], greater than 125 µg/mL. The IC50 in the data set on Vero is greater than 50 µg/mL; in the data set with Plasmodium falciparum, 9.3 µg/mL (≈ 18.7 µM).
As for `Cn1c2c(O)cccc2c(=O)c2c(O)cc3c(c21)C=CC(C)(C)O3`, in data set [2], the selectivity ratio worked out at 10. The EC50 in the data set with Leishmania donovani turned out to be 11.2 µg/mL (≈ 34.6 µM); in data set [1], 125 µg/mL (≈ 387 µM). In addition, the IC50 in the data set with Vero is 9.3 µg/mL (≈ 28.8 µM); in the data set on Plasmodium falciparum, 0.9 µg/mL (≈ 2.78 µM).
As to `C[C@@H]1O[C@@H](O[C@H]2[C@H](Oc3cc(=O)n(C)c4ccccc34)O[C@H](CO)[C@@H](O)[C@@H]2O)[C@H](O)[C@H](O)[C@H]1O` [KATIMBORINE], the EC50 (in the data set on Leishmania donovani; in data set [1]) was greater than 125 µg/mL in each case. Besides, the IC50 with Vero is greater than 50 µg/mL; in the data set on Plasmodium falciparum it was greater than 100 µg/mL.
`CC[C@@]1(O)C(=O)OCc2c1cc1n(c2=O)Cc2cc3ccccc3nc2-1` [CAMPTOTHECIN] returned an IC50 with Vero of 0.6 µg/mL (≈ 1.72 µM).
`NCCS[As](SCCN)c1ccc(Nc2nc(N)nc(N)n2)cc1` [CYMELARSEN] yielded an EC50 in data set [1] of 1 µg/mL.
For `COc1cc2oc(=O)ccc2cc1CC=C(C)C` [SUBEROSIN], the EC50 (in the data set with Leishmania donovani; in data set [1]) was greater than 125 µg/mL in each case. Further, the IC50 with Vero is greater than 50 µg/mL; with Plasmodium falciparum it was greater than 100 µg/mL.
Consider `COc1cc2c(c(O)c1OC)c(=O)c1cccc(O)c1n2C`, for which the selectivity ratio in data set [2] was determined as 10. The EC50 with Leishmania donovani is 20.4 µg/mL (≈ 67.7 µM); in data set [1], 125 µg/mL (≈ 415 µM). The results for the IC50 with Vero and with Plasmodium falciparum were 30.5 µg/mL (≈ 101 µM) and 3 µg/mL (≈ 9.96 µM), respectively.
Turning to `CC1(C)C=Cc2c(ccc3ccc(=O)oc23)O1` [SESALIN], the EC50 (in the data set on Leishmania donovani; in data set [1]) was greater than 125 µg/mL in each case. The IC50 was greater than 50 µg/mL in the data set with Vero and greater than 100 µg/mL in the data set with Plasmodium falciparum.
As to `C[n+]1cccc(C(=O)[O-])c1.Cl` [TRIGONELLINE HYDROCHLORIDE], the EC50 (with Leishmania donovani; in data set [1]) was greater than 125 µg/mL each time. Also, the IC50 was greater than 50 µg/mL in the data set on Vero and greater than 100 µg/mL in the data set with Plasmodium falciparum.
Regarding `N=C(N)c1ccc(OCCCCCOc2ccc(C(=N)N)cc2)cc1` [PENTAMIDINE], the EC50 in the data set with Leishmania donovani turned out to be 3.1 µg/mL (≈ 9.11 µM); in data set [1] it was 1.4 µg/mL (≈ 4.11 µM).
